Results as given in ChEMBL document CHEMBL1130458, “Inhibition of carboxypeptidase a by N-(4-t-Butylbenzoyl)-2-hydroxy-1-naphthaldehyde hydrazone” (Bioorg Med Chem Lett, 1997).

What was measured:
[1] = target: T1, Angiotensin-converting enzyme (Oryctolagus cuniculus) (UniProt P12822); experiment: Percentage inhibition of angiotensin converting enzyme (rabbit lung) by the compound required to inhibit at 63 uM was evaluated
T1 sequence (whole entry): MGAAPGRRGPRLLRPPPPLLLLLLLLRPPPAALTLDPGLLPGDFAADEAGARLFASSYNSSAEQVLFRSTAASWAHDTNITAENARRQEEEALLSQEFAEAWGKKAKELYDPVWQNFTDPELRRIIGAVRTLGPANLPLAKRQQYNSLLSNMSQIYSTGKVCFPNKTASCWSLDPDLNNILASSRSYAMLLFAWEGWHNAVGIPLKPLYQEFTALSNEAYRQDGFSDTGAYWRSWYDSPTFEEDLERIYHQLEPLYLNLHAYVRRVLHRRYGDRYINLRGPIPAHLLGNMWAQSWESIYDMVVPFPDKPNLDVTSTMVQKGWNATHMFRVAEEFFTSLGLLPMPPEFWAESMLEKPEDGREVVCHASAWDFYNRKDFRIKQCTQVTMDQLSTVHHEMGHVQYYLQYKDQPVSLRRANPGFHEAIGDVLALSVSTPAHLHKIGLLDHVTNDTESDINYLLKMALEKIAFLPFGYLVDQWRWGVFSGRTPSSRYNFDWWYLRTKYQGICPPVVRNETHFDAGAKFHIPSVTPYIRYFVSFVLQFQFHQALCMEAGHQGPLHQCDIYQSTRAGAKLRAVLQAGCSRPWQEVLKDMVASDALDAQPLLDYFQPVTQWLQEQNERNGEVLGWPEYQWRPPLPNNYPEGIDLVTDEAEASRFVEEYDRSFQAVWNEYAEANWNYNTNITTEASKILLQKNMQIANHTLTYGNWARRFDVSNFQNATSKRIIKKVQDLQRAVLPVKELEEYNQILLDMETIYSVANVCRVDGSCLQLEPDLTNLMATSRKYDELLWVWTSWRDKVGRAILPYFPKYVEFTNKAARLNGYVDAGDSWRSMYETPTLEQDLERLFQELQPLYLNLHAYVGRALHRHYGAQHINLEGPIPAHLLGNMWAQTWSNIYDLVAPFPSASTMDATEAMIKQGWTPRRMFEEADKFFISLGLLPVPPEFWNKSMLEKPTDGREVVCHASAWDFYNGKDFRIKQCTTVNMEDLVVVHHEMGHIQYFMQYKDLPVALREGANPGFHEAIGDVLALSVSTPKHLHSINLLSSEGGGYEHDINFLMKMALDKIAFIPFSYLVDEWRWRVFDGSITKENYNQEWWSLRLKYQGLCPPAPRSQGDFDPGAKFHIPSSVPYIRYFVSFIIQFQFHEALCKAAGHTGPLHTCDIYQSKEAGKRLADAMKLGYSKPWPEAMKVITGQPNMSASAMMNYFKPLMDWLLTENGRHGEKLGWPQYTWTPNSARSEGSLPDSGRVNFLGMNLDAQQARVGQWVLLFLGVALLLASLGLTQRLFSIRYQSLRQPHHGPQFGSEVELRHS

[2] = target: T2, Carboxypeptidase A1 (Bos taurus, UniProt P00730); experiment: Inhibitory concentration required to inhibit carboxypeptidase A (CPA, bovine, Type I) was evaluated
T2 sequence (P00730 whole entry): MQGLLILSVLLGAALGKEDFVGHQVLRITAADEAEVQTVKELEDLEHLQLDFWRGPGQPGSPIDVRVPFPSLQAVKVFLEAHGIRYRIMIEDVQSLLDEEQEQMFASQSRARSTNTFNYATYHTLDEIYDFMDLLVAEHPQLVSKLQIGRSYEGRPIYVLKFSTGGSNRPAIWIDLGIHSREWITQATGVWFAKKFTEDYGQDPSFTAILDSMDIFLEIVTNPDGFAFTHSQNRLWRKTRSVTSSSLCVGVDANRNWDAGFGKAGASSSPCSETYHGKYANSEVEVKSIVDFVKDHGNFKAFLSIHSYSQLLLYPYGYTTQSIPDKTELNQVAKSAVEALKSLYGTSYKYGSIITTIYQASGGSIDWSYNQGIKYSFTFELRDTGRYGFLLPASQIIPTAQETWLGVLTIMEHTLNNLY

[3] = target: T3, Carboxypeptidase A1 (Bos taurus) (UniProt P00730); experiment: Percentage inhibition of carboxypeptidase A (CPA, bovine, Type I) enzyme by the compound required to inhibit at 63 uM was evaluated
T3 sequence (whole entry): T2 sequence (P00730 whole entry)

inhibition [1] | IC50 [2] | inhibition [3] | SMILES
5% | 29 µM |  | CC(C)(C)c1ccc(C(=O)N/N=C/c2c(O)ccc3ccccc23)cc1
3% |  | 33% | CC(C)(C)c1ccc(C(=O)N/N=C/c2ccccc2O)cc1
2% |  | 17% | CC(C)(C)c1ccc(C(=O)N/N=C/c2cccc3ccccc23)cc1
